Columns and labels:
5-HT2B [1] = molecular target: T1, 5-HT2B (Homo sapiens, UniProt P41595); experiment: FLIPR Ca2+ flux functional assay, 5-HT2B (CHO-K1); assay type: cell-based; details: CHO-K1 cells expressing 5-HT2B; for Emax: CHO-K1, agonist activity
T1 construct: host or cells: CHO-K1

5-HT2C = molecular target: T2, 5-HT2C (Homo sapiens, UniProt P28335); experiment: FLIPR Ca2+ flux functional assay, 5-HT2C (HEK293); assay type: cell-based; details: HEK293 cells expressing 5-HT2C; for Emax: HEK293, agonist activity
T2 construct: host or cells: HEK293
T2 sequence (P28335 33-458): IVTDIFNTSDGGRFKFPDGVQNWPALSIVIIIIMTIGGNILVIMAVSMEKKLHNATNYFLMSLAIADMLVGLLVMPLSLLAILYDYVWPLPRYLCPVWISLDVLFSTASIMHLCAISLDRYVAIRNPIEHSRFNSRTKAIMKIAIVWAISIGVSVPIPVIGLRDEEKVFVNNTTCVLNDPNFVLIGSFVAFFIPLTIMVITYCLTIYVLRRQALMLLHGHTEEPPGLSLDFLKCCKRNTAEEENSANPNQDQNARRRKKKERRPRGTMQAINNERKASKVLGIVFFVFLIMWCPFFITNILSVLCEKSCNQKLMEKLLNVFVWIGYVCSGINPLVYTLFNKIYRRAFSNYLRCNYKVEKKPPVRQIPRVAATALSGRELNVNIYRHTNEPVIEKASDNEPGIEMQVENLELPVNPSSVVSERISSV

5-HT2A = molecular target: T3, 5-HT2A (Homo sapiens, UniProt P28223); experiment: FLIPR Ca2+ flux functional assay, 5-HT2A (HEK293); assay type: cell-based; details: HEK293 cells expressing 5-HT2A; for Emax: HEK293, agonist activity; for EC50: agonist activity
T3 construct: host or cells: HEK293

5-HT2B [2] = molecular target: T1, 5-HT2B; experiment: Activation in a similar Ca2+ flux assay at a single concentration, 5-HT2B; assay type: cell-based; details: head prints 10 µM
Description: Activity at 5-HT2A, 5-HT2B and 5-HT2C receptors was determined using a FLIPR Ca2+ flux assay at WuXi AppTec Co. Ltd. (Hong Kong) Discovery Biology Unit according to their standard protocols. Briefly, stably transfected cells expressing the receptor of interest (HEK293 for 5-HT2A and 5-HT2C; CHO-K1 for 5-HT2B) were grown and plated in a 384 well plate and incubated at 37° C. and 5% CO2 overnight. A 250 mM stock solution of probenecid in FLIPR calcium assay buffer (10 mL) was freshly prepared and combined with a fluorescent dye (Fluo-4 Direct) to give a final assay concentration of 2.5 mM. Reference compounds were 4-fold serially diluted and the screening compounds were 3-fold serially diluted in 100% DMSO for 10 points using Agilent Bravo, and 750 nL was added to a 384 well compound plate using Echo along with 30 μL assay buffer. The fluorescent dye was then added to the assay plate along with assay buffer to a final volume of 40 μL. The cell plate was incubated for 50 min at 37° C. and 5% CO2 and placed into the FLIPR Tetra along with the compound plate. 10 μL of references and compounds were then transferred from the compound plate into the cell plate and the fluorescent signal was read.
Activation data are provided in a similar assay tested at a single 10 μM concentration.

ICR mice = experiment: Acute restraint stress - tail suspension test (Example 51a); assay type: in vivo, mouse; details: male ICR mice after 5 h acute restraint stress, IP, tested 10 min after treatment, FIGS. 6 and 7
Description: Male ICR mice (23±3 g) were purchased from BioLASCO (Taipei, Taiwan) at 4-5 weeks of age and allowed 5-7 days to acclimate to the animal research facility at Pharmacology Discovery Services (Taipei, Taiwan). Mice were housed in groups of 10 in a large cage (47×25×15 cm) on a 12-hour light cycle (lights on: 0700) and provided ad libitum food and water except during acute restraint stress and tail-suspension testing. Temperature was maintained at 20-24° C., and all rooms (colony and testing rooms) had similar lighting intensity. […] All experiments were conducted between 0900 to 1700 local time, during the light phase. […]
Tail Suspension Test (TST) Procedure: Mice were individually suspended on the edge of a shelf, 58 cm above a tabletop, using adhesive tape placed approximately 1 cm from the tip of the tail, for a total duration of 7 minutes. Using a stopwatch, the experimenters blinded to treatment groups recorded the duration of immobility (defined as hanging passively and motionless) during the 5 minutes spanning from 2-7 minutes. The data from 0-2 minutes was not recorded. […]

T3 sequence (P28223 whole entry): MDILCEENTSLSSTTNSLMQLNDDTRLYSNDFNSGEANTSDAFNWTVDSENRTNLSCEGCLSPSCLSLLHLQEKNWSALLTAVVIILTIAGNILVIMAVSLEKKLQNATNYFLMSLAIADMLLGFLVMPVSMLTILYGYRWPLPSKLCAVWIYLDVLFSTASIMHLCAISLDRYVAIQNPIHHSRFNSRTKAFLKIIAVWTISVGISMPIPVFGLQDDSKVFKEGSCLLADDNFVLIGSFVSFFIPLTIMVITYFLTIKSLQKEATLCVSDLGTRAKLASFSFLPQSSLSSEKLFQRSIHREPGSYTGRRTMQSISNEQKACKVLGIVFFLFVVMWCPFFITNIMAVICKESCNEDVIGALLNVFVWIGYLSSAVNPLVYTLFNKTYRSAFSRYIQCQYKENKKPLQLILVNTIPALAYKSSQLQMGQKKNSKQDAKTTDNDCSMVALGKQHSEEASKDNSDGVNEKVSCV
T1 sequence (P41595 whole entry, species assumed): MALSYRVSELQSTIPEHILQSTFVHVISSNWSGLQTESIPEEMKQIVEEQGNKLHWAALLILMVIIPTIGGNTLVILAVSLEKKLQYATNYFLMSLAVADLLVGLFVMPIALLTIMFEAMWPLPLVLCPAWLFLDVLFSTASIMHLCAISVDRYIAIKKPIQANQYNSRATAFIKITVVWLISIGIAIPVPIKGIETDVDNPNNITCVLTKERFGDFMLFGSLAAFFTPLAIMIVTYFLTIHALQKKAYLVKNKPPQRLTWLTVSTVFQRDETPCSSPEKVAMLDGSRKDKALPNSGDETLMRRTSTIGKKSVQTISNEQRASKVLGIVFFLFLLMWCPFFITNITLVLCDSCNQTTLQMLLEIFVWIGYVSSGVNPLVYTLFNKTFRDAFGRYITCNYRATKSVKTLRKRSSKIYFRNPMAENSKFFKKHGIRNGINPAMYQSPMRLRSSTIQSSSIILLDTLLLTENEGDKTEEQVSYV

| Compound | Emax (5-HT2B [1]) [%] | Emax (5-HT2C) [%] | Emax (5-HT2A) [%] | EC50 (5-HT2C; agonist activity) [nM] | 5-HT2B % Activation @ 10 µM (5-HT2B [2]) [%] | EC50 (5-HT2A) [nM] | immobility time in tail suspension test (ICR mice) | 5-HT2B Emax (5-HT2B [1]; agonist activity) [%] | 5-HT2C Emax (5-HT2C; agonist activity) [%] |
| --- | --- | --- | --- | --- | --- | --- | --- | --- | --- |
| CCN(C)CCc1n[nH]c2ccc(OC)cc12 [Example P-51, N-ethyl-2-(5-methoxy-1H-indazol-3-yl)-N-methylethan-1-amine] | 30.9 | 24.6 | 79.1 | – | – | – | – | – | – |
| CCN(CC)CCc1n[nH]c2ccc(OC)cc12 [Example P-48, N,N-diethyl-2-(5-methoxy-1H-indazol-3-yl)ethan-1-amine] | 16.1 | 4.22 | 58.6 | – | – | – | – | – | – |
| CCN(CC)CCc1n[nH]c2cccc(OC)c12 [Example P-42, 2-(4-methoxy-1H-indazol-3-yl)-N,N-diethylethan-1-amine] | 0.24 | 70.5 | 68.8 | – | – | – | – | – | – |
| CN(C)CCc1n[nH]c2ccccc12 [Example P-7] | 0.17 | 40.2 | -0.3 | – | – | – | – | – | – |
| CCCN(CCC)CCc1n[nH]c2cccc(OC)c12 [Example P-44, 2-(4-methoxy-1H-indazol-3-yl)-N,N-dipropylethan-1-amine] | 39.4 | 77.2 | 97.6 | – | – | – | – | – | – |
| COc1cc2c(CCN(C)C)n[nH]c2cc1F [Example A5, 2-(6-fluoro-5-methoxy-1H-indazol-3-yl)-N,N-dimethylethan-1-amine] | – | 105 | 87 | 281 | 44 | 44.1 | decrease the immobility time | – | – |
| COc1ccc2[nH]nc(CCN(C)C(C)C)c2c1 [Example P-52, N-(2-(5-methoxy-1H-indazol-3-yl)ethyl)-N-methylpropan-2-amine] | 0.22 | 0.09 | 77.3 | – | – | – | – | – | – |
| COc1cccc2[nH]nc(CCN(C)C)c12 [Example P-55, 2-(4-methoxy-1H-indazol-3-yl)-N,N-dimethylethan-1-amine] | 1.35 | 83.6 | 58.7 | – | – | – | – | – | – |
| CCCN(CCC)CCc1n[nH]c2cccc(O)c12 [Example P-45, 3-(2-(dipropylamino)ethyl)-1H-indazol-4-ol] | 8.93 | 40.2 | 100 | – | – | – | – | – | – |
| COc1ccc2[nH]nc(CCN(C)C)c2c1 [Example P-8, 2-(5-methoxy-1H-indazol-3-yl)-N,N-dimethylethan-1-amine] | 17.9 | 72.4 | 70 | – | – | – | decrease the immobility time | – | – |
| CCN(CC)CCc1n[nH]c2cccc(O)c12 [Example P-43, 3-(2-(diethylamino)ethyl)-1H-indazol-4-ol] | 8.01 | 28.8 | 38.9 | – | – | – | – | – | – |
| COc1cc2c(CCN(C)C(C)C)n[nH]c2cc1F [Example A7, N-(2-(6-fluoro-5-methoxy-1H-indazol-3-yl)ethyl)-N-methylpropan-2-amine] | – | 67 | 63 | 4180 | 7 | 318 | – | – | – |
| CN(C)CCc1n[nH]c2cccc(O)c12 [Example P-6] | – | – | 66.4 | – | – | 43.1 | – | 0.34 | −0.79 |
| COc1ccccc1CNCCc1n[nH]c2ccc(F)c(F)c12 [Example A74, 2-(4,5-difluoro-1H-indazol-3-yl)-N-(2-methoxybenzyl)ethan-1-amine] | – | 95 | 89 | 133 | 0 | 59.5 | – | – | – |
| COc1cc(F)cc2[nH]nc(CCN(C)C)c12 [Example A38, 2-(6-fluoro-4-methoxy-1H-indazol-3-yl)-N,N-dimethylethan-1-amine] | – | 75 | 77 | 203 | 0 | 75 | – | – | – |
| CCCN(CCC)CCc1n[nH]c2ccc(OC)cc12 [Example P-49, N,N-dipropyl-2-(5-methoxy-1H-indazol-3-yl)ethan-1-amine] | 30.7 | -0.46 | 67.6 | – | – | – | – | – | – |
| COc1ccc2[nH]nc(CCNCc3ccccc3OC)c2c1 [Example A63, 2-(5-methoxy-1H-indazol-3-yl)-N-(2-methoxybenzyl)ethan-1-amine] | – | 88 | 92 | 32.5 | 11 | 2.24 | – | – | – |
| CCN(C)CCc1n[nH]c2cc(F)c(OC)cc12 [Example A6, N-ethyl-2-(6-fluoro-5-methoxy-1H-indazol-3-yl)-N-methylethan-1-amine] | – | 101 | 86 | 786 | 40 | 110 | – | – | – |
| CN(C)CCc1n[nH]c2c(F)cc(F)cc12 [Example A35, 2-(5,7-difluoro-1H-indazol-3-yl)-N,N-dimethylethan-1-amine] | – | 54 | 72 | 495 | 1 | 213 | – | – | – |
